# Columns and labels:
# [1] = Solubility in cyclohexanone at 25° C.; assay type: physicochemical
# [2] = Thermal stability of polymer film (ΔEab before and after hard baking at 200° C. for 1 hour); assay type: physicochemical; details: dye in acrylic resin film, baked at 200° C. under air for 1 hour; smaller ΔEab = better heat resistance
# Experimental: The obtained dry film was baked at 200° C. under air for 1 hour to evaluate heat resistance. Optical performance measured by the difference between chromaticity coordinates of before and after baking (ΔEab value) was 4.9. A smaller ΔEab value indicates better heat resistance.
# The wet films after spin coating are dried in oven at 80° C. for 30 minutes and then soft baked at 150° C. for 15 minutes. The chromaticity coordinates (L, a, b) are recorded with UltraScan Pro (Hunterlab) colorimeter. D65 light source is used and results are based on CIE Lab coordinates. After that the films are hard baked at target temperature (200° C.) for lhour and the new chromaticity coordinates (L′, a′, b′) are recorded with the method above. The thermal stability is indicated by the difference of chromaticity coordinate before and after hard baking represented by the following formula;
# ΔE=√{square root over ((L−L′^2+(a−a′)^2+(b−b′)^2)}{square root over ((L−L′^2+(a−a′)^2+(b−b′)^2)}.
Solubility in cyclohexanone at 25° C. (wt %) [1] [wt %],Thermal stability at 200° C. (ΔEab) [2],SMILES
6.4,43,"CC1=NN(c2ccccc2)C(=O)C1/N=N/c1ccccc1 (stereo not drawn) [Example 2, C.I. solvent yellow 16]"
4.3,15,"Cc1ccccc1/N=N/c1ccc(/N=N/c2c(O)ccc3ccccc23)c(C)c1 [Example 3, C.I. solvent red 24]"
6.4,64,"Oc1ccc2ccccc2c1/N=N/c1ccccc1 [Example 4, C.I. solvent yellow 14]"

# Source: patent US20160053120A1, “AZO DYE USED FOR A COLOR FILTER OF A LCD” (DOW GLOBAL TECHNOLOGIES LLC, priority 2013, published 2016)
